The values below come from patent publication US8940756B2, “Dihydronaphthyridines and related compounds useful as kinase inhibitors for the treatment of proliferative diseases” (Deciphera Pharmaceuticals, Inc., priority 2012, dated 2015).

The target of experiment [1] is T1, c-KIT T670I kinase (Seq ID no. 6) (Homo sapiens, UniProt P10721, T670I).
T1 construct: GST (N); TEV cleavage site (N); purchased deCODE Biostructures
In words: c-KIT T670I Kinase Assay. It is filed as biochemical. Conditions: enzymatic assay, ATP 200 uM. On the procedure: (§1) In this assay, the oxidation of NADH (measured by decrease in absorbance at 340 nm) was continuously monitored spectrophotometrically. […] The inhibition reaction was started by mixing serial diluted test compound with the above reaction mixture. The absorption at 340 nm was monitored continuously for 5 hours at 30° C. on Synergy 2 plate reader (BioTech). […] The protein construct was prepared by deCODE Biostructures using procedures known in the art. The construct contains […] of cKit, an N-terminal tag, a GST-fusion sequence and a TEV cleavage site. This construct is identical to Seq ID no.

The target of experiment [2] is T2, c-KIT kinase (Seq ID no. 1) (Homo sapiens, UniProt P10721).
T2 construct: GST (N); TEV cleavage site (N); purchased deCODE Biostructures
Put plainly: c-KIT Kinase Assay (pyruvate kinase/lactate dehydrogenase coupled). It is filed as biochemical. The settings on record: enzymatic assay, ATP 200 μM; read-out: KIT (wt). On the procedure:
In this assay, the oxidation of NADH (measured by decrease in absorbance at 340 nm) was continuously monitored spectrophotometrically. […] The absorption at 340 nm was monitored continuously for 2 hours at 30° C. on Synergy 2 (BioTeK). The reaction rate was calculated using the 0 to 1 h time frame. Percent inhibition was obtained by comparison of reaction rate with that of a control (i.e. with no test compound). IC50 values were calculated from a series of percent inhibition values determined at a range of inhibitor concentrations using software routines as implemented in the GraphPad Prism software package. The protein construct was prepared by deCODE Biostructures using procedures known in the art. The construct contains […] of cKit, an N-terminal tag, a GST-fusion sequence and a TEV cleavage site.

Experiment [3] concerns the target T3, c-KIT D816H kinase (Seq ID no. 3) (Homo sapiens, UniProt P10721, D816H).
T3 construct: GST (N); TEV cleavage site (N); purchased deCODE Biostructures
Put plainly: c-KIT D816H Kinase Assay. In kind it is biochemical. Conditions: enzymatic assay, ATP 200 μM. On the procedure:
as §1, with “6” for “5”, “no. 1 except for the D816H mutation.” for “no.”

Experiment [4] has as its target T4, c-KIT V654A kinase (Seq ID no. 2) (Homo sapiens, UniProt P10721, V654A).
T4 construct: V654A c-Kit (residues T544-V976 with N-terminal GST fusion, 47 nM); purchased deCODE Biostructures
Put plainly: c-KIT V654A Kinase Assay. It is filed as biochemical. Conditions: enzymatic assay, ATP 200 μM. On the procedure:
In this assay, the oxidation of NADH (measured by decrease in absorbance at 340 nm) was continuously monitored spectrophotometrically. […] The inhibition reaction was started by mixing serial diluted test compound with the above reaction mixture. The absorption at 340 nm was monitored continuously for 6 hours at 30° C. on Synergy 2 plate reader (BioTech).
The protein construct was prepared by deCODE Biostructures using procedures known in the art. The construct contains residues T544-V976 of cKit, an N-terminal tag, a GST-fusion sequence and a TEV cleavage site. This construct is identical to Seq ID no.

For experiment [5], the target named is T5, c-KIT D816V kinase (Seq ID no. 4) (Homo sapiens, UniProt P10721, D816V).
T5 construct: D816V c-KIT (residues T544-V976 with N-terminal GST fusion, 16 nM); purchased deCODE Biostructures
In words: c-KIT D816V kinase Assay. In kind it is biochemical. The settings on record: enzymatic assay, ATP 200 uM. On the procedure: In this assay, the oxidation of NADH (measured by decrease in absorbance at 340 nm) was continuously monitored spectrophotometrically. […] The inhibition reaction was started by mixing serial diluted test compound with the above reaction mixture. The absorption at 340 nm was monitored continuously for 5 hours at 30° C. on Synergy 2 plate reader (BioTech).
The protein construct was prepared by deCODE Biostructures using procedures known in the art. The construct contains residues T544-V976 of cKit, an N-terminal tag, a GST-fusion sequence and a TEV cleavage site. This construct is identical to Seq ID no. 1 except for the D816V mutation.

For experiment [6], the target named is Phospho-KIT (Tyr719) in GIST48 cells (Homo sapiens, UniProt P10721). In words: GIST48 KIT Western Blot. It is filed as cell-based. The settings on record: 4 hours, read-out: pKIT suppression by western blot analysi GIST48.
Experiment [7] addresses T6, c-KIT VVDV kinase (V559 and V560 deleted and D816V mutation, Seq ID no. 5) (Homo sapiens, UniProt P10721, D816V/DEL559-560).
T6 construct: This construct contains residues T544-V976 of cKit (except for the D816V mutation and the deletion of residues V559 and V560); GST (N); TEV cleavage site (N); purchased deCODE Biostructures
In words: cKIT-VVDV Kinase Assay. In kind it is biochemical. Conditions: enzymatic assay, ATP 200 uM. On the procedure:
as §1, with “art. This” for “art. The”, “of cKit (except for the D816V […]),” for “of cKit,”, “no. 1 except for the D816V […].” for “no.”

Experiment [8] addresses Phospho-KIT (Tyr719) in GIST430 cells (Homo sapiens, UniProt P10721). In words: GIST430 KIT Western Blot. It is filed as cell-based. Conditions: 4 hours, read-out: pKIT suppression by western blot analysi GIST430.
The target in experiment [9] is T7, Phospho-KIT (Tyr719) in GIST882 cells (Homo sapiens, UniProt P10721, K642E).
T7 construct: endogenous in cells; host or cells: GIST882
Put plainly: GIST882 KIT Western Blot. It is filed as cell-based. The settings on record: 4 hours, read-out: pKIT suppression by western blot analysi GIST 882. On the procedure:
GIST48, GIST430, and GIST882 cells were obtained from J. Fletcher (Brigham and Women's Hospital, Boston, Mass.). GIST T1 cells were obtained from B. Rubin (Cleveland Clinic, Cleveland, Ohio) and Professor Takahiro Taguchi (Kochi Medical School, Nankoku, Kochi, Japan). […] GIST430 cells were grown in Ham's F10 medium supplemented with 15% characterized fetal bovine serum (Invitrogen, Carlsbad, Calif.), 30 mg/L bovine pituitary extract (BD Biosciences, San Jose, Calif.), 0.5% Mito+ serum extender (BD Biosciences, San Jose, Calif.), 1 unit/mL penicillin G, 1 μg/ml streptomycin, and 0.29 mg/mL L-glutamine at 37° C., 5% CO2, 95% humidity. GIST T1 cells were grown in DMEM medium supplemented with 10% characterized fetal bovine serum (Invitrogen, Carlsbad, Calif.), 1 unit/mL penicillin G, 1 ng/ml streptomycin, and 0.29 mg/mL L-glutamine at 37° C., 5% CO2, and 95% humidity. Cells were allowed to expand until reaching 70-95% confluence at which point they were subcultured or harvested for assay use.
Two hundred fifty thousand cells were added per well in a 24-well tissue-culture treated plate. Cells were then incubated overnight at 37° C., 5% CO2, 95% humidity. Medium was aspirated, cells were washed with PBS, and serum-free RPMI1640 medium was added. A serial dilution of test compound was added to plates containing cells and plates were incubated for 4 hours at 37° C., 5% CO2, 95% humidity. Cells were washed with PBS, then lysed. Cell lysates were separated by SDS-PAGE and transferred to PVDF. Phospho-KIT (Tyr719) was detected using an antibody from Cell Signaling Technology (Beverly, Mass.), ECL Plus detection reagent (GE Healthcare, Piscataway, N.J.) and a Molecular Devices Storm 840 phosphorimager in fluorescence mode. Blots were stripped and probed for total KIT using an antibody from Santa Cruz Biotech (Santa Cruz, Calif.). IC50 values were calculated using Prism software (Graphpad, San Diego, Calif.).

SMILES strings stand for the structures.

T3 sequence (P10721 544-976 D816H): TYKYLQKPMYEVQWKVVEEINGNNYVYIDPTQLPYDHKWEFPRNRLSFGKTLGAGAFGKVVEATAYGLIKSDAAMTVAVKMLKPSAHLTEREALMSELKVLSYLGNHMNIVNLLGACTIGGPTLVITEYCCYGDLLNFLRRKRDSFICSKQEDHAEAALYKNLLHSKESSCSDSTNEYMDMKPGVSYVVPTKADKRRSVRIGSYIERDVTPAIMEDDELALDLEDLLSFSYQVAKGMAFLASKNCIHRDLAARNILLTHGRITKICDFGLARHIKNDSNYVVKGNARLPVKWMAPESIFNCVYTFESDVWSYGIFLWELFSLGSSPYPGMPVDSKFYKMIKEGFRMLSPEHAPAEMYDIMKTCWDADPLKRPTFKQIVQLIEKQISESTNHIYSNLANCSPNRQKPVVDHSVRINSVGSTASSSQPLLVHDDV
T1 sequence (P10721 544-976 T670I): as the sequence (P10721 544-976 D816H) above, with T127I, H273D counted along it
T4 sequence (P10721 544-976 V654A): as the sequence (P10721 544-976 D816H) above, with V111A, H273D counted along it
T2 sequence (P10721 with tags, fused parts or gaps): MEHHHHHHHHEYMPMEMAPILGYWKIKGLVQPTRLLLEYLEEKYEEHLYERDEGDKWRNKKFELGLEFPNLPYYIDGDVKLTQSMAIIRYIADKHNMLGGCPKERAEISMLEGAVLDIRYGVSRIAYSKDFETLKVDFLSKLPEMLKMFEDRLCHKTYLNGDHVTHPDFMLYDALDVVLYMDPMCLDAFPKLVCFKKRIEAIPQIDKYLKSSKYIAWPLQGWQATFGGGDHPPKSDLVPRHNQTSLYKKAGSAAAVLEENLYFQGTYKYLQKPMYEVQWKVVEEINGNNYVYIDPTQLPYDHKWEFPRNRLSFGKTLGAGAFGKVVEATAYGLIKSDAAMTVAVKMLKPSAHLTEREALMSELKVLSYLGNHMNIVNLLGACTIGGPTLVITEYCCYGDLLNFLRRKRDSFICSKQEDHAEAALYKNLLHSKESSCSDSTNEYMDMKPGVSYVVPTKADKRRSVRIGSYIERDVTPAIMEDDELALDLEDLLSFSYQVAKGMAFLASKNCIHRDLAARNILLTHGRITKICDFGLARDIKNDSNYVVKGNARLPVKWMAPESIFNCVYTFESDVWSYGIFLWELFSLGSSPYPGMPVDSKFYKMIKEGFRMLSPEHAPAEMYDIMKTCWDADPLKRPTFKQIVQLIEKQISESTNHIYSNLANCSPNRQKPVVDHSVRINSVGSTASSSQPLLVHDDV
Sequence of Phospho-KIT (Tyr719) in GIST48 cells (P10721 whole entry V560D/D820A, form open): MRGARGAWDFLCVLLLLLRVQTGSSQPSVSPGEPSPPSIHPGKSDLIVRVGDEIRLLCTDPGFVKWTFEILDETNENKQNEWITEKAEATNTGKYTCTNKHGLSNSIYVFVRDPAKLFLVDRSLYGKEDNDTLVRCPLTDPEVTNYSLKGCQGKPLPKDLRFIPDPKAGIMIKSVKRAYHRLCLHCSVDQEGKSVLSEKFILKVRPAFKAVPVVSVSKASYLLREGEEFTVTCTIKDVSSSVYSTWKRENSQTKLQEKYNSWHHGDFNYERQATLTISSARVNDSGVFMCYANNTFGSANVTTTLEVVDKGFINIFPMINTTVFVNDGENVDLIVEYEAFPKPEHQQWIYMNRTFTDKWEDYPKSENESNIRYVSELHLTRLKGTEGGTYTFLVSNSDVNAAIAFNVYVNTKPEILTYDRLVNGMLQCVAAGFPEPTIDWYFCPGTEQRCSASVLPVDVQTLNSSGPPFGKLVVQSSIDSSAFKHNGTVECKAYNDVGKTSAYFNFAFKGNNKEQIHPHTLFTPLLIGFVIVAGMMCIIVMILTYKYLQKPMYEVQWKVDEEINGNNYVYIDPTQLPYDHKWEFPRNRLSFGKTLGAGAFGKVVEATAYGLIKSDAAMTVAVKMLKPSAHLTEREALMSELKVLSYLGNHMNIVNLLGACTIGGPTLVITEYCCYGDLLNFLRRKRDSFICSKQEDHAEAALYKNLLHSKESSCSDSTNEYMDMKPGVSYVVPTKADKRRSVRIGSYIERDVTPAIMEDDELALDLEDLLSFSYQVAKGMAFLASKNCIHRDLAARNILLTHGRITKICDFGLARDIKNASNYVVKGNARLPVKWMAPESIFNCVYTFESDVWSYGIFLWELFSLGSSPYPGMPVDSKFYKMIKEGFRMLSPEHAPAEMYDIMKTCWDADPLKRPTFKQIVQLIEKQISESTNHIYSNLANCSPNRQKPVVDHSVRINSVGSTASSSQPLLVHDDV
T5 sequence (P10721 544-976 D816V): as the sequence (P10721 544-976 D816H) above, with H273V counted along it
T6 sequence (P10721 with tags, fused parts or gaps DEL559-560/D816V): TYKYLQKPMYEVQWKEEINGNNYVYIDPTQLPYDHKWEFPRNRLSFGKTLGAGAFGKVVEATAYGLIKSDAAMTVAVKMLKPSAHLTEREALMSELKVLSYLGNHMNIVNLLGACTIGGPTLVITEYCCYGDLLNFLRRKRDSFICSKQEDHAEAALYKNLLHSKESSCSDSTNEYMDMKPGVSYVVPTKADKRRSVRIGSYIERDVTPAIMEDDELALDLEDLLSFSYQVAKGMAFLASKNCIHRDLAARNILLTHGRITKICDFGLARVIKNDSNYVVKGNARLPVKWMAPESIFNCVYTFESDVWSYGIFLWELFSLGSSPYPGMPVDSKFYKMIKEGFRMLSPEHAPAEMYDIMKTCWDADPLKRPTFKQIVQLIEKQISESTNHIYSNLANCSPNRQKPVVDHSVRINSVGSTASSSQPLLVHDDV
Sequence of Phospho-KIT (Tyr719) in GIST430 cells (P10721 with tags, fused parts or gaps DEL560-576/V654A, form open): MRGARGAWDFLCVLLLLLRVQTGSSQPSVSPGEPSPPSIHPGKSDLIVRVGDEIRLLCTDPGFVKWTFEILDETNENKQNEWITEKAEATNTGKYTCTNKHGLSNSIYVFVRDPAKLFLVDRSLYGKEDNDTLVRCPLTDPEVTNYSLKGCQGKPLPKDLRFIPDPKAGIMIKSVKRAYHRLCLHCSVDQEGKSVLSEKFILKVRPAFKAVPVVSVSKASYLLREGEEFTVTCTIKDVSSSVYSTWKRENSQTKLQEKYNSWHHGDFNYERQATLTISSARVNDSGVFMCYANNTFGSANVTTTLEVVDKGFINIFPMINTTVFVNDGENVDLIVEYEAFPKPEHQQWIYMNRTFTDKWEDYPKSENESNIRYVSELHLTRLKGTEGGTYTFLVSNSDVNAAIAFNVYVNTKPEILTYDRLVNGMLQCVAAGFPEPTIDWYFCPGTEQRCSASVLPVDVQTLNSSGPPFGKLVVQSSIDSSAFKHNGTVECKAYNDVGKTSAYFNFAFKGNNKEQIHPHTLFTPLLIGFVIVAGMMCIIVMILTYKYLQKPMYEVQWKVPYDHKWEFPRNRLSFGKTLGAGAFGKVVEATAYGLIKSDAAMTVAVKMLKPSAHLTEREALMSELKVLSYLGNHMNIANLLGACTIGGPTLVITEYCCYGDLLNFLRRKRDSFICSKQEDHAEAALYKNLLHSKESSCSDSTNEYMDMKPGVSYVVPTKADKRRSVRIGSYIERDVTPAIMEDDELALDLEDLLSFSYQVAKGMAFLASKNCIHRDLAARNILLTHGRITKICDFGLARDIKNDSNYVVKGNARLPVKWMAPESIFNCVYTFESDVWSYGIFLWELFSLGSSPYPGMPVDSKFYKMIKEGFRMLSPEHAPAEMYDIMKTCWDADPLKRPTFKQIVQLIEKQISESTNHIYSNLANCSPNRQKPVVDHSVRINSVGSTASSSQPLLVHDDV
T7 sequence (P10721 26-976 K642E): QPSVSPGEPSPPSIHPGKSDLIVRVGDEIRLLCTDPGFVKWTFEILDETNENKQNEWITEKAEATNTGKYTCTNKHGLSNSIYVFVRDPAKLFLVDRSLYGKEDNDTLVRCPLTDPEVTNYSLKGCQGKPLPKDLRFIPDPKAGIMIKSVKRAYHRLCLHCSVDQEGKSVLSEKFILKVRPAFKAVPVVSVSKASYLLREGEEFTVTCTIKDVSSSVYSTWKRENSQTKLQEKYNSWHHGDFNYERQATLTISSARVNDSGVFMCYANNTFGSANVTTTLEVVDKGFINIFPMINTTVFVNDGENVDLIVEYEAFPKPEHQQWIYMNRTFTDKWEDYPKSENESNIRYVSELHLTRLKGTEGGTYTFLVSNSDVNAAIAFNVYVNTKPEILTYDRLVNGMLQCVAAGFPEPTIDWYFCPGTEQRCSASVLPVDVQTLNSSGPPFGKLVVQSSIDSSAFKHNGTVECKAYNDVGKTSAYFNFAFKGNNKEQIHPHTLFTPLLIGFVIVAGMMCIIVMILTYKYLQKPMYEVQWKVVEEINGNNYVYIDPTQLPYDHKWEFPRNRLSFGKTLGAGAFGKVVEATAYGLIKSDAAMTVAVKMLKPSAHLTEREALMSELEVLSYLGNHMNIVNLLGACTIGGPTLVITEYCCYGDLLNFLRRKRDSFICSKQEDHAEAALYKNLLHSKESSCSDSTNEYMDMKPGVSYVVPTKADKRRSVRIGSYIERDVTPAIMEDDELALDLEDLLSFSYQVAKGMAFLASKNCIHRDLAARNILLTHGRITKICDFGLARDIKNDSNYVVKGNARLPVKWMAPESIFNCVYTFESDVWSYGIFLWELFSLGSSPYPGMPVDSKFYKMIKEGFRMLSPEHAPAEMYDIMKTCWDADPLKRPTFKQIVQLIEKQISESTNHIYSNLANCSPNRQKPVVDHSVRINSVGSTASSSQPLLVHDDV

As for `CCn1c(=O)c(-c2cc(NC(=O)Nc3ccccc3)c(F)cc2C)cc2cnc(Nc3cnn(C)c3)cc21` [Example 115, 1-(5-(1-ethyl-7-((1-methyl-1H-pyrazol-4-yl)amino)-2-oxo-1,2-dihydro-1,6-naphthyridin-3-yl)-2-fluoro-4-methylphenyl)-3-phenylurea], the IC50 in [1] was 10 to 100 nM; in experiment [2], below 10 nM; in [3], below 10 nM; in experiment [4], 10 to 100 nM; in [5] it was below 10 nM.
As for `CCn1c(=O)c(-c2cc(NC(=O)Nc3cccc(Cl)c3)c(F)cc2F)cc2cnc(NC)cc21` [Example 17, 1-(3-chlorophenyl)-3-(5-(1-ethyl-7-(methylamino)-2-oxo-1,2-dihydro-1,6-naphthyridin-3-yl)-2,4-difluorophenyl)urea], the IC50 in experiment [6] was in the range of 10 to 100 nM; in experiment [7] it was 100 to 1000 nM; in experiment [8], 10 to 100 nM; in experiment [5], 10 to 100 nM.
For the molecule `CC(=O)Nc1cc2c(cn1)cc(-c1cc(NC(=O)Nc3cccc(F)c3)c(F)cc1Cl)c(=O)n2C(C)C` [Example 99, N-(3-(2-chloro-4-fluoro-5-(3-(3-fluorophenyl)ureido)phenyl)-1-isopropyl-2-oxo-1,2-dihydro-1,6-naphthyridin-7-yl)acetamide], the IC50 in [1] is 10 to 100 nM; in experiment [2], below 10 nM; in experiment [3], 10 to 100 nM; in experiment [4] it was 10 to 100 nM; in [5], below 10 nM.
Take `Cc1cc(F)c(NC(=O)Nc2ccccc2)cc1-c1cc2cnc(NC(=O)N3CCC3)cc2n(C(C)C)c1=O` [Example 109, N-(3-(4-fluoro-2-methyl-5-(3-phenylureido)phenyl)-1-isopropyl-2-oxo-1,2-dihydro-1,6-naphthyridin-7-yl)azetidine-1-carboxamide]: the IC50 in [1], in [6], in experiment [2], in experiment [3], in experiment [4] and in experiment [5] was 10 to 100 nM each time.
Take `CCn1c(=O)c(-c2cc(NC(=O)Nc3ccccc3)c(F)cc2F)cc2cnc(NC(=O)CC#N)cc21` [Example 75, 2-cyano-N-(3-(2,4-difluoro-5-(3-phenylureido)phenyl)-1-ethyl-2-oxo-1,2-dihydro-1,6-naphthyridin-7-yl)acetamide]: the IC50 is 10 to 100 nM in experiment [1], below 10 nM in [2], 100 to 1000 nM in experiment [3] and 100 to 1000 nM in experiment [5].
On to `CCn1c(=O)c(-c2cc(NC(=O)Nc3ccccc3)c(F)cc2Br)cc2cnc(NC(C)=O)cc21` [Example 53, 1-(5-(7-acetamido-1-ethyl-2-oxo-1,2-dihydro-1,6-naphthyridin-3-yl)-4-bromo-2-fluorophenyl)-3-phenylurea], for which the IC50 is 10 to 100 nM in experiment [1]; 100 to 1000 nM in experiment [6]; 10 to 100 nM in [9]; below 10 nM in experiment [2]; below 10 nM in experiment [7]; below 10 nM in experiment [8]. The IC50 in [4] was 10 to 100 nM; in [5], below 10 nM.
